Data reported in the supplement of paper PMC11616607.

Legend:
Test in all cases: drug sensitivity score (DSS) from 5-point dose-response viability curve (DSS (area-under-curve based score)); higher = more sensitive (stronger growth inhibition or killing); extreme values may be limits of the assay
Conditions in all cases: exposure time: 72 h; concentration range: 5 concentrations over 10,000-fold range
CAOV3 = tested on: CAOV3
Outline: (§1)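 Ovarian cancer and normal ovarian cell lines were tested in 384-well plates, with drugs dispensed acoustically (Echo 550) in DMSO or water at five concentrations covering a 10,000-fold range. After 1,500 cells per well were added, plates were incubated for 3 days at 37°C and 5% CO2, and viability was read by CellTiter-Glo luminescence on a PHERAstar FS. Breeze software gave a drug sensitivity score for each cell line and drug, where a higher score means greater sensitivity. A value of zero means no response.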

COV318 = tested on: COV318
Outline: as §1

COV362 = tested on: COV362
Outline: as §1

HOSE1C = tested on: HOSE1C
Outline: as §1

HOSE2C = tested on: HOSE2C
Outline: as §1

JHOS2 = tested on: JHOS2
Outline: as §1

Kuramochi = tested on: Kuramochi
Outline: as §1

OV90 = tested on: OV90
Outline: as §1

OVCAR4 = tested on: OVCAR4
Outline: as §1

OVCAR5 = tested on: OVCAR5
Outline: as §1

OVCAR8 = tested on: OVCAR8
Outline: as §1

Ovsaho = tested on: Ovsaho
Outline: as §1

| Compound | drug sensitivity score (CAOV3) | drug sensitivity score (COV318) | drug sensitivity score (COV362) | drug sensitivity score (HOSE1C) | drug sensitivity score (HOSE2C) | drug sensitivity score (JHOS2) | drug sensitivity score (Kuramochi) | drug sensitivity score (OV90) | drug sensitivity score (OVCAR4) | drug sensitivity score (OVCAR5) | drug sensitivity score (OVCAR8) | drug sensitivity score (Ovsaho) |
| --- | --- | --- | --- | --- | --- | --- | --- | --- | --- | --- | --- | --- |
| O=C(/C=C\n1cnc(-c2cc(C(F)(F)F)cc(C(F)(F)F)c2)n1)NNc1cnccn1 [Selinexor] | 18.7 | 8.2 | 7.9 | 29 | 9.3 | 13.9 | 8.1 | 8.2 | 10.7 | 15.3 | 17.4 | 16.5 |
| CCN1CCN(Cc2ccc(Nc3ncc(F)c(-c4cc(F)c5nc(C)n(C(C)C)c5c4)n3)nc2)CC1 [Abemaciclib] | 0.4 | 1 | 1.5 | 1.6 | 0.7 | 5.5 | 2.5 | 1.5 | 0 | 7.4 | 0.7 | 3.2 |
| CC[C@@H]1C(=O)N(C)c2cnc(Nc3ccc(C(=O)NC4CCN(C)CC4)cc3OC)nc2N1C1CCCC1 [BI 2536] | 18.3 | 3.9 | 2.1 | 12.5 | 8.7 | 11.9 | 11.4 | 15 | 3.9 | 17.7 | 23.5 | 19.7 |
| C=CC(=O)N1CCC[C@@H](n2nc(-c3ccc(Oc4ccccc4)cc3)c3c(N)ncnc32)C1 [Ibrutinib] | 3 | 0 | 0.5 | 0 | 0 | 0 | 2.8 | 0 | 1.5 | 3.1 | 0 | 2.5 |
| CN[C@@H]1C[C@H]2O[C@@](C)([C@@H]1OC)n1c3ccccc3c3c4c(c5c6ccccc6n2c5c31)C(=O)N[C@H]4O [UCN-01] | 19.3 | 18.7 | 17.8 | 27.8 | 29.7 | 15.3 | 14.6 | 22.8 | 13.8 | 18.1 | 18.8 | 23.8 |
| O=C(O)c1ccc(CN2CCC(CN[C@@H]3C[C@H]3c3ccccc3)CC2)cc1 | 0 | 0 | 0 | 0 | 0 | 0 | 0 | 0 | 0.3 | 0 | 0 | 0 |
| Nc1nc(F)nc2c1ncn2[C@@H]1O[C@H](CO)[C@@H](O)[C@@H]1O [Fludarabine] | 0.2 | 0 | 0.5 | 25.2 | 22.6 | 0 | 0 | 1.5 | 0.2 | 0 | 4.4 | 0.1 |
| CC[C@]1(O)C[C@H]2CN(CCc3c([nH]c4ccccc34)[C@@](C(=O)OC)(c3cc4c(cc3OC)N(C=O)[C@H]3[C@@](O)(C(=O)OC)[C@H](OC(C)=O)[C@]5(CC)C=CCN6CC[C@]43[C@@H]65)C2)C1 [Vincristine] | 21.3 | 1.9 | 3.3 | 16.3 | 17.7 | 2.7 | 3.1 | 16.9 | 6.6 | 4.5 | 8.9 | 5.9 |
| CNc1nc(-c2ccc3c(N)n[nH]c3c2)cc(N2C[C@@H](C(=O)NC3CCCCC3)CC[C@H]2C)n1 | 1.9 | 0.1 | 0 | 4.5 | 2.6 | 0.7 | 0.5 | 0 | 0 | 0 | 1.2 | 1.1 |
| CCc1nc(C(N)=O)c(Nc2ccc(N3CCC(N4CCN(C)CC4)CC3)c(OC)c2)nc1NC1CCOCC1 [Gilteritinib] | 3.9 | 0.6 | 0.4 | 0 | 0 | 0 | 0.7 | 2.2 | 0.1 | 4.9 | 0.4 | 0 |
| COc1cc(C)c(/C=C/C(C)=C/C=C/C(C)=C/C(=O)O)c(C)c1C [Acitretin] | 0 | 0 | 0 | 0.1 | 0 | 1.3 | 0 | 0.2 | 0 | 0 | 0 | 0 |
| CNC(=O)c1ccc(-c2cnc3ncc(Cc4ccc5ncccc5c4)n3n2)cc1F [Capmatinib] | 0 | 0 | 0 | 0 | 0 | 0 | 0.1 | 0 | 0 | 0 | 0 | 0 |
| Cc1cc(C)c(CNC(=O)c2cc(-c3ccc(CN4CCOCC4)cc3)cc3c2cnn3C2CCCC2)c(=O)[nH]1 [EPZ-5687] | 0 | 0 | 1.1 | 0 | 0 | 0 | 0 | 0 | 0 | 1.8 | 0 | 0 |
| CC1(C)CNc2cc(NC(=O)c3cccnc3NCc3ccncc3)ccc21 [Motesanib] | 0 | 1.1 | 0 | 0 | 0 | 0 | 2.1 | 0.3 | 0 | 0 | 0 | 3.5 |
| N#Cc1ccc(COC[C@H]2O[C@@H](n3c(NCc4ccc(Cl)c(Cl)c4)nc4c(N)ncnc43)[C@H](O)[C@@H]2O)cc1 | 3.8 | 0.1 | 0.5 | 2.7 | 5.6 | 1 | 1.4 | 3.8 | 0.3 | 4.4 | 5.5 | 4.5 |
| C[C@@H](C(=O)O)c1ccc(-c2ccccc2)c(F)c1 [Tarenflurbil] | 0 | 0.3 | 0 | 0 | 0 | 0.7 | 0 | 1.3 | 0 | 0.3 | 0 | 0 |
| CCS(=O)(=O)c1cccc(-c2cc(C(=O)NC3CCN(C)CC3)c(C)c3[nH]c4ncc(C)cc4c23)c1 [TAK-901] | 16.9 | 1.4 | 1.1 | 3.5 | 7.4 | 1.2 | 6.8 | 4.6 | 5.8 | 4.7 | 2.8 | 7.5 |
| NC[C@@](O)(c1ccc(Cl)cc1)c1ccc(-c2cn[nH]c2)cc1 | 0.5 | 3.3 | 0 | 8.6 | 6.1 | 2.8 | 0.1 | 0 | 1.1 | 0.7 | 1.1 | 0 |
| CN1CCN(c2cc(C(=O)Nc3ccc4c(c3)-c3c(c(C(N)=O)nn3-c3ccc(F)cc3)CC4)c(Cl)cn2)CC1 [PHA 408] | 6 | 0.7 | 0.6 | 6.5 | 4.8 | 6.1 | 1.8 | 0.1 | 4.3 | 0.5 | 2.4 | 6.2 |
| NC(=O)N1CCC(CC(=O)N2CCC([C@H]3c4ncc(Br)cc4CCc4cc(Cl)cc(Br)c43)CC2)CC1 [Lonafarnib] | 8.9 | 9.2 | 1.9 | 8 | 8.9 | 8.4 | 11 | 15.8 | 9.1 | 9.1 | 9.4 | 9.8 |
| COc1cc(OC)c(/C=C/S(=O)(=O)Cc2ccc(OC)c(NCC(=O)O)c2)c(OC)c1 [Rigosertib] | 23.4 | 11.7 | 9.8 | 28.4 | 20.8 | 11.5 | 14.9 | 20.2 | 10.9 | 17 | 25.4 | 18.9 |
| COc1cc(OC2CCN(C)CC2)ccc1Nc1ncc2c(n1)n(C1CCCC1)c(=O)n2C [AZ 3146] | 3.6 | 2.7 | 0.8 | 0.9 | 2.4 | 2.3 | 3.9 | 4.8 | 1.5 | 6.2 | 4.6 | 4.7 |
| O=C(Nc1cc(Oc2cc(F)c(NC(=O)C3(C(=O)Nc4ccc(F)cc4)CC3)cc2F)ccn1)C1CC1 [Altiratinib] | 2.7 | 1.7 | 3 | 4.2 | 3.4 | 4.3 | 4.3 | 0 | 3.3 | 6.6 | 6 | 3.6 |
| COC(=O)C[C@](O)(CCCC(C)(C)O)C(=O)O[C@@H]1C(OC)=C[C@]23CCCN2CCc2cc4c(cc2[C@H]13)OCO4 [Omacetaxine] | 28.7 | 17.4 | 19.2 | 31 | 18.6 | 19.3 | 18.3 | 23.3 | 20.9 | 23.4 | 24.1 | 19.5 |
| CC(C)(O)CC(=O)NCCn1ccc2ncnc(Nc3ccc(Oc4cccc(C(F)(F)F)c4)c(Cl)c3)c21 [TAK-285] | 2.5 | 0 | 0.2 | 0 | 0 | 0 | 0.9 | 0 | 0 | 2 | 0.1 | 0.2 |
| COc1cccc2c1C(=O)c1c(O)c3c(c(O)c1C2=O)C[C@@](O)(/C(CO)=N/NC(=O)CCCCCN1C(=O)C=CC1=O)C[C@@H]3O[C@H]1C[C@H](N)[C@H](O)[C@H](C)O1 [Aldoxorubicin] | 9.2 | 3.8 | 2.2 | 6.8 | 7.4 | 7.3 | 5.8 | 8.3 | 3.2 | 6.5 | 10 | 8.3 |
| Cc1[nH]c2ccccc2c1CCNCc1ccc(/C=C/C(=O)NO)cc1 [Panobinostat] | 14.5 | 10.6 | 5.8 | 24.1 | 21.1 | 13.1 | 15.3 | 18.2 | 13.5 | 23.3 | 21.4 | 10.8 |
